Measurements: ChEMBL document CHEMBL1124263 (J Med Chem, 1988)

What was measured:
[1] = molecular target: T1, Serotonin 2 (5-HT2) receptor (Rattus norvegicus, UniProt P30994+P08909+P14842)
[2] = molecular target: 5-hydroxytryptamine receptor 1B (Rattus norvegicus, UniProt P28564); assay: biochemical
[3] = molecular target: T1, Serotonin 2 (5-HT2) receptor; assay: Ability to displace 0.75 nM [3H]ketanserin in 5-hydroxytryptamine 2 receptor from rat frontal cortex homogenate; format: tissue-based

Sequence of 5-hydroxytryptamine receptor 1B (P28564 whole entry): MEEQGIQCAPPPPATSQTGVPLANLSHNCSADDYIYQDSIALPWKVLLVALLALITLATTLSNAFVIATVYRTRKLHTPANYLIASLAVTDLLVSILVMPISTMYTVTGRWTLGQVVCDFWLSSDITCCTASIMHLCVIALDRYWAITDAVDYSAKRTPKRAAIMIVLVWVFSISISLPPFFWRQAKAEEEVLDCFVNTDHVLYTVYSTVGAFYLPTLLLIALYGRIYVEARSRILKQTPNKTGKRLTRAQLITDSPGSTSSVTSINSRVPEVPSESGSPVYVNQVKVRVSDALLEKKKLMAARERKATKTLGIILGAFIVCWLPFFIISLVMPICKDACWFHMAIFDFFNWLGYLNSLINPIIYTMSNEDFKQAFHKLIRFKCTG

SMILES | Log Ki [1] | Ki [2] | Ki [3]
COc1ccc2[nH]cc(C[C@@H](C)N)c2c1 | -5.89 | 380 nM | 
COc1ccc2[nH]cc(C[C@H](C)N)c2c1 | -6.15 | 417 nM | 
C[C@H](N)Cc1c[nH]c2cccc(O)c12 | -5.21 | 4070 nM | 
COc1cccc2[nH]cc(C[C@@H](C)N)c12 | -5.84 | 776 nM | 
COc1ccc2c(C[C@@H](C)N)c[nH]c2c1 |  | 2140 nM | > 10000 nM
C[C@@H](N)Cc1c[nH]c2cccc(O)c12 | -5.46 | 1550 nM | 
COc1ccc2c(C[C@H](C)N)c[nH]c2c1 |  | 7240 nM | > 10000 nM
COc1cccc2[nH]cc(C[C@H](C)N)c12 | -6.02 | 2690 nM | 
